Test results as given in US10294202B2, “Pyrrolidinones as herbicides” (FMC Corporation, priority 2013, dated 2019).

Legend:
[1] = system: pigweed; assay: Test A pre-/postemergence herbicide test; assay type: in vivo, Amaranthus retroflexus; details: for Pigweed plant response rating: Preemergence, visual rating on 0 to 100 scale (0 no effect, 100 complete control)
Procedure, shortened: (§1)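 Scoring was visual, relative to untreated controls, on a 0–100 scale after about 10 greenhouse days. Preemergence treatment used a directed soil spray over seeded loam/sand; postemergence treatment targeted one- to two-leaf plants of 2–10 cm.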

[2] = system: velvetleaf; assay: Test A pre-/postemergence herbicide test; assay type: in vivo, Abutilon theophrasti; details: for Velvetleaf plant response rating: Preemergence, visual rating on 0 to 100 scale (0 no effect, 100 complete control)
Procedure, shortened: as §1

[3] = system: giant foxtail; assay: Test A pre-/postemergence herbicide test; assay type: in vivo, Setaria faberii; details: for Foxtail, Giant plant response rating: Preemergence, visual rating on 0 to 100 scale (0 no effect, 100 complete control)
Procedure, shortened: as §1

[4] = system: ducksalad; assay: Test B flooded paddy test; assay type: in vivo, Heteranthera limosa; details: 250 g ai/ha, Flood; scale of 0 to 100 where 0 is no effect and 100 is complete control
Procedure, shortened: (§2)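 Scoring: visual, compared with untreated controls, 0 = no effect through 100 = complete control, taken 13 to 15 days after treatment in the greenhouse. Compounds had been added to paddy water over soil flooded 3 cm deep at the plants' 2-leaf stage.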

[5] = system: rice; assay: Test B flooded paddy test; assay type: in vivo, Oryza sativa; details: 250 g ai/ha, Flood; scale of 0 to 100 where 0 is no effect and 100 is complete control
Procedure: (§3) Plant species in the flooded paddy test selected from rice (Oryza sativa), sedge, umbrella (small-flower umbrella sedge, Cyperus difformis), ducksalad (Heteranthera limosa), and barnyardgrass (Echinochloa crus-galli) were grown to the 2-leaf stage for testing. At time of treatment, test pots were flooded to 3 cm above the soil surface, treated by application of test compounds directly to the paddy water, and then maintained at that water depth for the duration of the test. Treated plants and controls were maintained in a greenhouse for 13 to 15 days, after which time all species were compared to controls and visually evaluated. Plant response ratings, summarized in Table B, are based on a scale of 0 to 100 where 0 is no effect and 100 is complete control. A dash (-) response means no test result.

[6] = system: morningglory; assay: Test A pre-/postemergence herbicide test; assay type: in vivo, Ipomoea spp.; details: for Morningglory plant response rating: Preemergence, visual rating on 0 to 100 scale (0 no effect, 100 complete control)
Procedure, shortened: as §1

[7] = system: barnyardgrass; assay: Test A pre-/postemergence herbicide test; assay type: in vivo, Echinochloa crus-galli; details: for Barnyardgrass plant response rating: Preemergence, visual rating on 0 to 100 scale (0 no effect, 100 complete control)
Procedure, shortened: as §1

[8] = system: crabgrass, large; assay: Test A pre-/postemergence herbicide test; assay type: in vivo, Digitaria sanguinalis; details: for Crabgrass, Large plant response rating: Preemergence, visual rating on 0 to 100 scale (0 no effect, 100 complete control)
Procedure, shortened: as §1

[9] = system: wheat; assay: Test A pre-/postemergence herbicide test; assay type: in vivo, Triticum aestivum; details: for Wheat plant response rating: Preemergence, visual rating on 0 to 100 scale (0 no effect, 100 complete control)
Procedure, shortened: as §1

[10] = system: barnyardgrass; assay: Test B flooded paddy test; assay type: in vivo, Echinochloa crus-galli; details: 250 g ai/ha, Flood; scale of 0 to 100 where 0 is no effect and 100 is complete control
Procedure, shortened: as §2

[11] = system: sedge, umbrella; assay: Test B flooded paddy test; assay type: in vivo, Cyperus difformis; details: 250 g ai/ha, Flood; scale of 0 to 100 where 0 is no effect and 100 is complete control
Procedure: as §3

[12] = system: corn; assay: Test A pre-/postemergence herbicide test; assay type: in vivo, Zea mays; details: for Corn plant response rating: Preemergence, visual rating on 0 to 100 scale (0 no effect, 100 complete control)
Procedure, shortened: as §1

[13] = Postemergence, 125 g ai/ha, 0 to 100 scale, 0 no effect, 100 complete control
[14] = Postemergence, 500 g ai/ha, 0 to 100 scale (0 no effect, 100 complete control)
[15] = preemergence, 500 g ai/ha, 0 to 100 scale
[16] = preemergence, 500 g ai/ha, 0 to 100 scale (0 no effect, 100 complete control)

SMILES	Plant response rating, Pigweed [1, 13]	Plant response rating, Pigweed [1, 14]	Pigweed plant response rating ([1]; 125 g ai/ha)	Plant response rating, Pigweed [1, 15]	Plant response rating, Velvetleaf [2, 13]	Plant response rating, Velvetleaf [2, 14]	Velvetleaf plant response rating ([2]; 125 g ai/ha)	Plant response rating, Velvetleaf [2, 15]	Plant response rating, Foxtail, Giant [3, 13]	Plant response rating, Foxtail, Giant [3, 14]	Foxtail, Giant plant response rating ([3]; 125 g ai/ha)	Plant response rating, Foxtail, Giant [3, 15]	Plant response rating, Ducksalad [4]	Plant response rating, Rice [5]	Plant response rating, Morningglory [6, 13]	Plant response rating, Morningglory [6, 14]	Morningglory plant response rating ([6]; 125 g ai/ha)	Plant response rating, Morningglory [6, 15]	Plant response rating, Barnyardgrass [7, 13]	Plant response rating, Barnyardgrass [7, 14]	also measured
Cc1cccc(C2CN(C(=O)OC(C)(C)C)C(=O)C2C(=O)Nc2ccccc2F)c1 (stereo not drawn) [Compound 37]	0	0	0	0	0	0	0	0	0	20	0	20	0	0	0	0	0	0	0	50	Barnyardgrass plant response rating ([7]; 125 g ai/ha): 0; Plant response rating, Barnyardgrass [7, 16]: 80; Plant response rating, Crabgrass, Large [8, 13]: 0; Plant response rating, Crabgrass, Large [8, 14]: 20; Crabgrass, Large plant response rating ([8]; 125 g ai/ha): 0; Plant response rating, Crabgrass, Large [8, 15]: 80; Plant response rating, Wheat [9, 13]: 0; Plant response rating, Wheat [9, 14]: 0; Wheat plant response rating ([9]; 125 g ai/ha): 0; Plant response rating, Wheat [9, 15]: 30; Plant response rating, Barnyardgrass [10]: 0; Plant response rating, Sedge, Umbrella [11]: 20; Plant response rating, Corn [12, 13]: 0; Plant response rating, Corn [12, 14]: 0; Corn plant response rating ([12]; 125 g ai/ha): 0; Plant response rating, Corn [12, 15]: 0
N#Cc1cccc(C2CNC(=O)C2C(=O)Nc2ccccc2F)c1 (racemic) [Compound 72]	0	0	0	0	0	0	0	0	10	50	60	80	60	0	0	10	0	0	20	60	Barnyardgrass plant response rating ([7]; 125 g ai/ha): 0; Plant response rating, Barnyardgrass [7, 16]: 50; Plant response rating, Crabgrass, Large [8, 13]: 30; Plant response rating, Crabgrass, Large [8, 14]: 70; Crabgrass, Large plant response rating ([8]; 125 g ai/ha): 80; Plant response rating, Crabgrass, Large [8, 15]: 90; Plant response rating, Wheat [9, 13]: 0; Plant response rating, Wheat [9, 14]: 0; Wheat plant response rating ([9]; 125 g ai/ha): 0; Plant response rating, Wheat [9, 15]: 0; Plant response rating, Barnyardgrass [10]: 0; Plant response rating, Sedge, Umbrella [11]: 0; Plant response rating, Corn [12, 13]: 0; Plant response rating, Corn [12, 14]: 0; Corn plant response rating ([12]; 125 g ai/ha): 0; Plant response rating, Corn [12, 15]: 0
